According to PubChem BioAssay (NCI):
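Cells were grown in 96-well plates and exposed to each compound for 48 hours at five concentrations; endpoints were interpolated linearly between bracketing concentrations, or set to the highest concentration if not reached. TGI: concentration producing complete growth inhibition.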

Assays:
Experiment in all cases: growth of human tumour cells (NCI), 48 h
LXFL 529 NSCLC = tested on: LXFL 529 NSCLC
HCT-15 colon = tested on: HCT-15 colon
KM20L2 colon = tested on: KM20L2 colon
DLD-1 colon = tested on: DLD-1 colon
XF 498 CNS = tested on: XF 498 CNS
DMS 114 small cell lung = tested on: DMS 114 small cell lung
SNB-78 CNS = tested on: SNB-78 CNS
DMS 273 small cell lung = tested on: DMS 273 small cell lung
HL-60(TB) leukemia = tested on: HL-60(TB) leukemia
MDA-MB-435 = tested on: MDA-MB-435
PC-3 prostate = tested on: PC-3 prostate
KM12 colon = tested on: KM12 colon
NCI/ADR-RES ovarian = tested on: NCI/ADR-RES ovarian
COLO 205 colon = tested on: COLO 205 colon
MCF7 breast = tested on: MCF7 breast
SNB-75 CNS = tested on: SNB-75 CNS
CCRF-CEM leukemia = tested on: CCRF-CEM leukemia
HS 578T breast = tested on: HS 578T breast
DU-145 prostate = tested on: DU-145 prostate
K-562 leukemia = tested on: K-562 leukemia

Structure (SMILES)	TGI (LXFL 529 NSCLC) [µM]	TGI (HCT-15 colon) [µM]	TGI (KM20L2 colon) [µM]	TGI (DLD-1 colon) [µM]	TGI (XF 498 CNS) [µM]	TGI (DMS 114 small cell lung) [µM]	TGI (SNB-78 CNS) [µM]	TGI (DMS 273 small cell lung) [µM]	TGI (HL-60(TB) leukemia) [µM]	TGI (MDA-MB-435) [µM]	TGI (PC-3 prostate) [µM]	TGI (KM12 colon) [µM]	TGI (NCI/ADR-RES ovarian) [µM]	TGI (COLO 205 colon) [µM]	TGI (MCF7 breast) [µM]	TGI (SNB-75 CNS) [µM]	TGI (CCRF-CEM leukemia) [µM]	TGI (HS 578T breast) [µM]	TGI (DU-145 prostate) [µM]	TGI (K-562 leukemia) [µM]
CCOc1ccc(C(C)c2cc3c(cc2OC)OCO3)cc1 (stereo not given)	> 100	> 100	0.414	82.5	0.823	0.85	> 100	11.7	–	–	–	–	–	–	–	–	–	–	–	–
CN1Cc2cc(O)c(O)cc2C(O)C1 (stereo not given)	–	–	–	–	–	–	–	–	> 100	> 100	> 100	> 100	> 100	> 100	> 100	> 100	> 100	> 100	> 100	> 100
